SMILES strings stand for the structures.

Results on one compound are retold here after US20150072856A1, “ADJUVANTS BASED ON OPTIONALLY ALKOXYLATED REACTION PRODUCTS OF GLYCEROL CARBONATE AND ALKYLAMINES” (BASF SE, priority 2012, published 2015).

What all share (assay type): in vivo
What all share (conditions): 300 g/ha adjuvant, 375 l/ha tank mix, score vs untreated plants

Assay [1] deals with winter wheat (cultivar Cubus). Nature of the assay: Greenhouse herbicidal activity of glyphosate tank mix with adjuvant on wheat. How it is done: (§1) An aqueous formulation (SL type) was prepared by dissolving 52.3 wt % potassium glyphosate in water. As adjuvant the ethoxylated (10 equivalents) carbamate from Example 1 was added and dissolved in the resulting SL formulation. This SL formulation was diluted with water to prepare a tank mix, which contained 0.8 g/l of the adjuvant, 0.75 g/l of the potassium glyphosate (or as alternative tank mix 0.37 g/l). This tankmix may be applied at 375 l/ha (corresponding to 300 g/ha adjuvant and 280 g/ha glyphosate (or 140 g/ha as alternative).
(§2) For the greenhouse tests, various crops (winter wheat (cultivar Cubus), maize (cultivar Amadeo), soybean (cultivar Delta P.), rapeseed) was sown or potted in loamy sandy soil to a depth of 1-2 cm. When the plants had reached a growth height of 10 to 25 cm (i.e., around 10 to 21 days after sowing), the spray mixtures were applied to the plants in a spraying cabin.
(§3) The tank mix prepared in Example 7 was applied at a application rate of 375 l/ha (140 or 280 g of glyphosate/ha and 300 g of adjuvant/ha). The temperatures in the experimental period, which lasted for 3 to 4 weeks, were between 18-35° C. […]
(§4) The herbicidal activity was evaluated by awarding scores to the treated plants in comparison to the untreated control plants (Table 1 and 2). […]

For assay [2], the system named is maize (cultivar Amadeo). Nature of the assay: Greenhouse herbicidal activity of glyphosate tank mix with adjuvant on maize. The procedure:
as §1, §2, §3, §4

Assay [3] relates to soybean (cultivar Delta P.). Nature of the assay: Greenhouse herbicidal activity of glyphosate tank mix with adjuvant on soybean. The procedure: as §1, §2, §3, §4
The test system of assay [4] is rapeseed. Nature of the assay: Greenhouse herbicidal activity of glyphosate tank mix with adjuvant on rapeseed. The procedure:
as §1, §2, §3, §4

For `O=C(O)CNCP(=O)([O-])O.[K+]` [—, potassium glyphosate], the results for the “Activity [%] after 21 days DAT, Wheat” value in assay [1] (140 g/ha glyphosate) and in assay [1] (280 g/ha glyphosate) were 8% and 31%, respectively. In addition, the “Activity [%] after 21 days DAT, Maize” value in assay [2] (140 g/ha glyphosate) was 13%; in assay [2] (280 g/ha glyphosate) it was 63%. For the same compound, the “Activity [%] after 21 days DAT, Soybean” value in assay [3] (140 g/ha glyphosate) and in assay [3] (280 g/ha glyphosate) was 0% in each case. In addition, the “Activity [%] after 21 days DAT, Rapeseed” value in assay [4] (140 g/ha glyphosate) and in assay [4] (280 g/ha glyphosate) was 0% throughout.
